Measured values from patent EP0895778A2, “Cosmetic composition” (Ajinomoto Co., Inc., priority 1997, dated 1999).
Where a name gives a salt, the structure may show the parent alone.

What was measured:
skin = assay type: in vivo, New Zealand white rabbits; settings: 0.3 ml of aqueous 1 % solution, patch 24 hours, observed 24 hours; four male rabbits
Description: (§1) The primary irritation of the skin and ocular mucous membranes by some test compounds mentioned below was checked according to the test methods mentioned below.
A patch test plaster, into which 0.3 ml of an aqueous 1 % solution of a test compound had been infiltrated, was airtightly stuck on each of four male New Zealand white rabbits and kept as such for 24 hours. […] The compounds tested were evaluated on the basis of the following criteria.

ocular mucous membranes = assay type: in vivo, New Zealand white rabbits; settings: 0.1 ml aqueous solution dropped into eyelid bag, checked 24 hours after; four male rabbits
Description: as §1
The lower eyelids of each of four male New Zealand white rabbits were formed into bags, into which was dropped 0.1 ml of an aqueous surfactant solution, and the upper and lower eyelids were lightly ligated. 24 hours after the dropping, the irritation of the ocular mucous membranes of each rabbit was checked according to the Draize's points mentioned below. The compound tested was evaluated on the basis of the following criteria.

In the case of `CCCCCCCCCCCCOCC(O)CNCCCC[C@H](N)C(=O)O` (stereo partly drawn) [Compound of Production Example 5, Nε-(2-hydroxy-3-dodecyloxy)propyl-L-lysine hydrochloride], the “Primary Skin Irritation” value (skin) was “Minor (Less than 2)” and the “Primary Mucous Membrane Irritation” value (ocular mucous membranes) was “Minor (Less than 10)”.
`CCCCCCCCCCC(O)CN[C@@H](CCCNC(=N)N)C(=O)O.Cl` (stereo partly drawn) [Compound of Production Example 7, N-(2-hydroxydodecyl)-L-arginine hydrochloride] was tested, and the “Primary Skin Irritation” value (skin) was “Minor (Less than 2)” and the “Primary Mucous Membrane Irritation” value (ocular mucous membranes) was “Minor (Less than 10)”.
For `CCCCCCCCCCCCCCCCCC[N+](C)(C)C.[Cl-]` [Stearyltrimethylammonium Chloride, reference compound], the “Primary Skin Irritation” value (skin) was “Heavy (4 or more)” and the “Primary Mucous Membrane Irritation” value (ocular mucous membranes) was “Moderate (20 to less than 50)”.
